From PMC5931107, “Clinical pharmacodynamic/exposure characterisation of the multikinase inhibitor ilorasertib (ABT-348) in a phase 1 dose-escalation trial” (British Journal of Cancer, 2018)
Like-named read-outs stand apart in the source and are kept apart here. Marks after values point to notes of the source that are not given here.

What was measured:
FLT-3 = tested on: FLT-3; design: method as in PMID 22935731; settings: FLT-3 constitutively phosphorylated in SEM cells, 60 min exposure; read-out: Cellular PD marker IC50 (95% confidence limits); cited from earlier work
[1] = Plasma pharmacokinetics, Arm III (i.v. infusion), phase 1 trial; format: in vivo, human; settings: for half-life: read-out: t1/2 (harmonic mean) (converted)
Method: Pharmacokinetics of ilorasertib were evaluated in the dose-escalation cohort on blood samples that were collected on cycle 1 days 1 and 15. Parameters determined: Cmax, time to Cmax (Tmax), terminal phase elimination half-life (t1/2), clearance, apparent oral clearance (CL/F), and area under the plasma concentration-time curve from time 0 to time of last measurable concentration (AUCt) and from time 0 to infinity (AUC∞). For Arm I, blood samples were collected prior to dosing and at 0.5, 1, 2, 3, 4, 6, 8, 10 or 12, and 24 h after dosing on cycle 1 days 1 and 15; of note, for institutions not able to collect the 10- or 12-h post-dose sample, the 24-h sample was replaced with 22-h and 28-h post-dose samples. In Arm II, for the first dose, blood samples were collected pre-dose and at 1, 2, 3, and 4 h post-dose on cycle 1 days 1 and 15; for the second dose, samples were collected pre-dose and at 1, 2, 3, 4, 18, and 24 h after second dose on cycle 1 days 1 and 15. In Arm III, blood samples were collected prior to infusion, at 1 h 55 min (just before end of infusion), and at 0.5, 1, 2, 4, 6, 8, 10, and 24 h after end of infusion on cycle 1 days 1 and 15; here also, for institutions not able to collect the 8-h or 10-h after-end-of-infusion samples, the 24-h sample was replaced with 22-h and 28-h post-dose samples. The liquid chromatography (LC)-mass spectrometry (MS)/MS method was developed and validated in the Bioanalysis Department of AbbVie. Fifty microliter of human plasma (K2EDTA as anticoagulant) was fortified with 300 μL of deuterium-stable labelled internal standard and mixed well. A HybridSPE precipitation plate (50 mg/96 wells, Supelco Analytical, Munich, Germany) was used to directly load and elute (under slight vacuum) the fortified samples into a clean collection plate. Samples were dried before reconstitution with 100 μL of 20/80 (v/v) acetonitrile/water, and injected for LC-MS/MS analysis. A Halo C8 (Wilmington, DE, USA; 2.7 μm, 2.1 × 30 mm) was used on an Agilent 1290 Infinity UPLC pump (Agilent Technologies, Santa Clara, CA) to carry out the separation. An isocratic condition with 25/75/0.1 (v/v/v) acetonitrile/water/98% formic acid was used as the mobile phase. The flow rate was set to be 0.6 mL/min. An MPS 3 C ([…] Ruhr, Germany) autosampler was used to introduce samples onto the UPLC system. An API 4000 mass spectrometer (Applied Biosystems, Foster City, CA) was used in the multiple reactions monitoring mode for the detection and quantitation of analyte. Descriptive statistics were used for demographic variables. The numbers and percentages of patients with treatment-emergent AEs (TEAEs) were tabulated using the Medical Dictionary for Regulatory Activities version 16.0 system organ class and preferred term, and further classified according to CTCAE version 4.0 criteria. The safety data set included all patients who received one or more doses of ilorasertib. The pharmacokinetic data set included all patients who received one or more doses of ilorasertib and had one or more pharmacokinetic samples. Values for pharmacokinetic parameters were determined using non-compartmental methods, with data analysed separately for each arm. A repeated measures analysis was performed for Tmax and dose-normalised Cmax, AUCt, and AUC∞. The model included random effects for patient and fixed effects for dose level, day, and the interaction of dose level and day. To assess effects of exposure on pharmacodynamic biomarkers, Cmax was employed as the directly measured marker of exposure for the rapid changes in DBP and PlGF pre-steady-state, while AUC∞ reflected exposure variability at the time of post-multiple-dose skin biopsy. Descriptive statistics were used to summarise ECOG performance status. The efficacy data set included all patients who received one or more doses of ilorasertib.

PDGFR-α = tested on: PDGFR-α; design: method as in PMID 22935731; settings: 1 mM ATP; read-out: Biochemical IC50 (95% confidence limits); cited from earlier work
[2] = Arm III i.v. infusion 8 mg, day 1, N=4
[3] = Arm III i.v. infusion 8 mg, day 15, N=4
[4] = Arm III i.v. infusion 16 mg, day 1, N=1
[5] = Arm III i.v. infusion 16 mg, day 15, N=1
[6] = Arm III i.v. infusion 32 mg, day 1, N=2, mean (individual)
[7] = Arm III i.v. infusion 32 mg, day 15, N=2, mean (individual)
[8] = Arm III i.v. infusion all doses, day 1, N=7
[9] = Arm III i.v. infusion all doses, day 15, N=7
[10] = human, plasma, iv, 8 mg, Arm III i.v. infusion 8 mg, day 1, N=3
[11] = human, plasma, iv, 8 mg, Arm III i.v. infusion 8 mg, day 15, N=3
[12] = human, plasma, iv, 16 mg, Arm III i.v. infusion 16 mg, day 1, N=1
[13] = human, plasma, iv, 16 mg, Arm III i.v. infusion 16 mg, day 15, N=1
[14] = human, plasma, iv, 32 mg, Arm III i.v. infusion 32 mg, day 1, N=2, mean (individual)
[15] = human, plasma, iv, 32 mg, Arm III i.v. infusion 32 mg, day 15, N=2, mean (individual)
[16] = human, plasma, iv, Arm III i.v. infusion all doses, day 1, N=6
[17] = human, plasma, iv, Arm III i.v. infusion all doses, day 15, N=6

SMILES: Nc1ncc(-c2cnn(CCO)c2)c2scc(-c3ccc(NC(=O)Nc4cccc(F)c4)cc3)c12 [ilorasertib, Ilorasertib]
- AUC∞/dose ([1]; Arm III i.v. infusion 8 mg, day 1, N=3): 273 ± 38.5^b ng•h/mL/mg
- AUCt/dose [1, 2]: 185 ± 42.9 ng·h/mL/mg
- Cmax/dose [1, 2]: 29.3 ± 10.3 ng/mL/mg
- AUC∞/dose ([1]; Arm III i.v. infusion 8 mg, day 15, N=3): 360 ± 249^b ng•h/mL/mg
- AUCt/dose [1, 3]: 219 ± 71.5 ng·h/mL/mg
- Cmax/dose [1, 3]: 30.8 ± 13.3 ng/mL/mg
- AUCt/dose [1, 4]: 119 ng·h/mL/mg
- AUC∞/dose [1, 4]: 152 ng·h/mL/mg
- Cmax [1, 4]: 0.37 µg/mL
- Cmax/dose [1, 4]: 22.9 ng/mL/mg
- AUCt/dose [1, 5]: 190 ng·h/mL/mg
- AUC∞/dose [1, 5]: 215 ng·h/mL/mg
- Cmax [1, 5]: 0.74 µg/mL
- Cmax/dose [1, 5]: 46 ng/mL/mg
- AUCt/dose [1, 6]: 265 (390, 139) ng•h/mL/mg
- AUC∞/dose [1, 6]: 287 (424, 150) ng•h/mL/mg
- Cmax [1, 6]: 1.31 (1.69, 0.94) μg/mL
- Cmax/dose [1, 6]: 41.0 (52.8, 29.2) ng/mL/mg
- AUCt/dose [1, 7]: 228 (304, 153) ng•h/mL/mg
- AUC∞/dose [1, 7]: 263 (358, 168) ng•h/mL/mg
- Cmax [1, 7]: 1.37 (1.85, 0.88) μg/mL
- Cmax/dose [1, 7]: 42.7 (57.8, 27.6) ng/mL/mg
- AUC∞/dose ([1]; Arm III i.v. infusion all doses, day 1, N=6): 258 ± 104^d ng•h/mL/mg
- AUCt/dose [1, 8]: 198 ± 93.7 ng·h/mL/mg
- Cmax/dose [1, 8]: 31.8 ± 12.0 ng/mL/mg
- AUC∞/dose ([1]; Arm III i.v. infusion all doses, day 15, N=6): 303 ± 180^d ng•h/mL/mg
- AUCt/dose [1, 9]: 217 ± 68.0 ng·h/mL/mg
- Cmax/dose [1, 9]: 36.4 ± 14.7 ng/mL/mg
- AUC(0-inf) [1, 10]: 2190 ± 310 ng·h/mL
- clearance [1, 10]: 61.8 mL/min
- half-life [1, 10]: 8.5 ± 4.1 h
- AUC(0-t) ([1]; human, plasma, iv, 8 mg, Arm III i.v. infusion 8 mg, day 1, N=4): 1480 ± 340 ng·h/mL
- Cmax ([1]; human, plasma, iv, 8 mg, Arm III i.v. infusion 8 mg, day 1, N=4, read-out: Cmax): 0.23 ± 0.08 µg/mL
- AUC(0-inf) [1, 11]: 2880 ± 1990 ng·h/mL
- clearance [1, 11]: 60.2 mL/min
- AUC(0-t) ([1]; human, plasma, iv, 8 mg, Arm III i.v. infusion 8 mg, day 15, N=4): 1750 ± 570 ng·h/mL
- Cmax ([1]; human, plasma, iv, 8 mg, Arm III i.v. infusion 8 mg, day 15, N=4, read-out: Cmax): 0.25 ± 0.11 µg/mL
- AUC(0-inf) [1, 12]: 2440 ng·h/mL
- AUC(0-t) [1, 12]: 1910 ng·h/mL
- clearance [1, 12]: 109 mL/min
- AUC(0-inf) [1, 13]: 3450 ng·h/mL
- AUC(0-t) [1, 13]: 3040 ng·h/mL
- clearance [1, 13]: 77.3 mL/min
- half-life [1, 13]: 9.6 h
- AUC(0-inf) [1, 14]: 9180 ng·h/mL
- AUC(0-t) [1, 14]: 8460 ng·h/mL
- clearance [1, 14]: 75.2 mL/min
- half-life [1, 14]: 9.3 h
- AUC(0-inf) [1, 15]: 8410 ng·h/mL
- AUC(0-t) [1, 15]: 7300 ng·h/mL
- clearance [1, 15]: 73 mL/min
- clearance [1, 16]: 74.2 mL/min
- half-life [1, 16]: 9.1 ± 3.3 h
- clearance [1, 17]: 67.3 mL/min
- half-life [1, 17]: 12.1 ± 4.4 h
- Tmax ([1]; human, plasma, iv, Arm III i.v. infusion 8 mg, day 1, N=4): 2 ± 0.2 h
- Tmax ([1]; human, plasma, iv, Arm III i.v. infusion all doses, day 1, N=7): 2 ± 0.2 h
- IC50 (PDGFR-α): 11 nM
